27 molecules from patent US20050267073A1, “Triheterocyclic compounds, compositions, and methods for treating cancer or viral diseases” (priority 2004, published 2005) can be followed below.

Assay [1] has as its system H1299 human non-small cell lung cancer cells. Description: Cell viability by cellular ATP levels (ViaLight), H1299 cells. The assay is classed as cell-based. Particulars: Homo sapiens. An excerpt: (§1) […]. […] […]. The total dimethyl sulfoxide on the cells was 1%. […] […].
(§2) As depicted in Table 4, these compounds were efficient in decreasing cellular ATP levels in HI 299 and C33A cancer cell lines. Nevertheless, these compounds are believed to have utility in the in vivo methods of the invention, i.e., treatment and prevention of cancer and viral infections, respectively. It should be noted that, although this cell-based assay is believed to be indicative of anti-oncogenic activity in vivo, it is not the only useful assay for evaluating the anti-oncogenic activity of Triheterocyclic Compounds of the invention. In addition, the anti-viral and other biological activity of compounds of the invention can be determined and evaluated in other assay systems known to the skilled artisan.

In assay [2] the test system is C33A cervical carcinoma cells. Description: cells. The assay is classed as cell-based. To be noted: Homo sapiens, C-33-A, read-out: IC50 (μM) C33A, Effect on Cancer Cells Viability.
From the text: as §1, §2

Where [3] appears, read: NCI-H1299, H1299, cellular ATP levels as described in Example 2, read-out: IC50 (μM) H1299, Effect on Cancer Cells Viability.
Setting [4] is: C33A, cellular ATP levels as described in Example 2.
The mark [5] stands for this setting: NCI-H1299, read-out: IC50 (μM) H1299, Effect on Cancer Cells Viability.

Where a name gives a salt, the structure may show the parent alone. Read-outs that look alike come from different tables or passages of the source.

On to `COC1=C(CO)C(c2[nH]c3ccccc3c2CNCCO)=N/C1=C\c1[nH]c(C)cc1C` [Compound 9, 2-({2-[5-(3,5-Dimethyl-1H-pyrrol-2-ylmethylene)-3-hydroxymethyl-4-methoxy-5H-pyrrol-2-yl]-1H-indol-3-ylmethyl}-amino)-ethanol], for which the values for the IC50 in assay [1] (setting [3]) and in assay [2] (setting [4]) were 4.43 µM and 2.21 µM, respectively.
For the molecule `Cc1cc(C)c(/C=C2\N=C(c3cc4ccc(O)cc4[nH]3)C=C2OC(C)C)[nH]1` [Compound 56, 2-[5-(3,5-Dimethyl-1H-pyrrol-2-ylmethylene)-4-isopropoxy-5H-pyrrol-2-yl]-1H-indol-6-ol], the IC50 came out at 5.96 µM in assay [1] (setting [3]) and 2.54 µM in assay [2] (setting [4]).
The like results for `COC1=CC(c2cc3ccccc3n2C(=O)c2ccc(Br)cc2)=N/C1=C/c1[nH]c(C)cc1C` [Compound 55, (4-Bromo-phenyl)-{2-[5-(3,5-dimethyl-1H-pyrrol-2-ylmethylene)-4-methoxy-5H-pyrrol-2-yl]-indol-1-yl}-methanone] were, in that order, 0.173 µM and 0.173 µM.
On the same counts, the results for `COC1=CC(c2[nH]c3ccccc3c2C(=O)NCCCO)=N/C1=C\c1[nH]c(C)cc1C` [Compound 48, 2-[5-(3,5-Dimethyl-1H-pyrrol-2-ylmethylene)-4-methoxy-5H-pyrrol-2-yl]-1H-indole-3-carboxylic acid (3-hydroxy-propyl)-amide] are 50 µM and 11.1 µM.
Consider `COC1=C(CO)C(c2[nH]c3ccccc3c2CNC(C)C)=N/C1=C\c1[nH]c(C)cc1C` [Compound 11, {5-(3,5-Dimethyl-1H-pyrrol-2-ylmethylene)-2-[3-(isopropylamino-methyl)-1H-indol-2-yl]-4-methoxy-5H-pyrrol-3-yl}-methanol], for which the concentration for half-maximal inhibition (IC50) is 0.983 µM in assay [1] (setting [3]) and 0.307 µM in assay [2] (setting [4]).
On to `COC1=CC(c2[nH]c3ccccc3c2CO)=N/C1=C\c1[nH]c(C)cc1C` [Compound 37], for which the IC50 in assay [1] (setting [3]) was found to be 1.35 µM; in assay [2] (setting [4]), 1.29 µM.
For the molecule `C=CCNCc1c(C2=N/C(=C\c3[nH]c(C)cc3C)C(OC)=C2CO)[nH]c2ccccc12` [Compound 13, [2-(3-Allylaminomethyl-1H-indol-2-yl)-5-(3,5-dimethyl-1H-pyrrol-2-ylmethylene)-4-methoxy-5H-pyrrol-3-yl]-methanol], the results for the half-inhibitory concentration (IC50) in assay [1] (setting [3]) and in assay [2] (setting [4]) were 0.717 µM and 0.44 µM, respectively.
Regarding `COC1=CC(c2cc3cc(OC)ccc3n2C(=O)OC(C)(C)C)=N/C1=C\c1[nH]c(C)cc1C` [Compound 30, 2-[5-(3,5-Dimethyl-1H-pyrrol-2-ylmethylene)-4-methoxy-5H-pyrrol-2-yl]-5-methoxy-indole-1-carboxylic acid tert-butyl ester], the IC50 in assay [1] (setting [3]) and in assay [2] (setting [4]) was 50 µM in each case.
As for `COC1=CC(c2cc3cc(Br)ccc3[nH]2)=N/C1=C\c1[nH]c(C)cc1C` [Compound 7, 5-Bromo-2-[5-(3,5-dimethyl-1H-pyrrol-2-ylmethylene)-4-methoxy-5H-pyrrol-2-yl]-1H-indole], the IC50 was found to be 1.73 µM in assay [1] (setting [3]) and 2.23 µM in assay [2] (setting [4]).
The like results for `COC1=CC(c2[nH]c3ccccc3c2C(=O)c2ccoc2)=N/C1=C\c1[nH]c(C)cc1C` [Compound 27, {2-[5-(3,5-Dimethyl-1H-pyrrol-2-ylmethylene)-4-methoxy-5H-pyrrol-2-yl]-1H-indol-3-yl}-furan-3-yl-methanone] were, in that order, 15.3 µM and 10 µM.
Consider `COC1=CC(c2cc3ccccc3n2C(=O)OCC(O)CO)=N/C1=C\c1[nH]c(C)cc1C` (stereo not drawn) [Compound 44, 2-[5-(3,5-Dimethyl-1H-pyrrol-2-ylmethylene)-4-methoxy-5H-pyrrol-2-yl]-indole-1-carboxylic acid 2,3-dihydroxy-propyl ester], for which the IC50 in assay [1] (setting [3]) worked out at 1.28 µM; in assay [2] (setting [4]), 1.26 µM.
As to `COC1=CC(c2cc3ccccc3n2CCO)=N/C1=C\c1[nH]c(C)cc1C` [Compound 40, 2-{2-[5-(3,5-Dimethyl-1H-pyrrol-2-ylmethylene)-4-methoxy-5H-pyrrol-2-yl]-indol-1-yl}-ethanol], the IC50 in assay [1] (setting [3]) is 8.46 µM; in assay [2] (setting [4]), 7.17 µM.
Take `Cc1cc(C)c(/C=C2\N=C(c3cc4ccccc4[nH]3)C=C2O)[nH]1` [Compound 50, 2-(3,5-Dimethyl-1H-pyrrol-2-ylmethylene)-5-(1H-indol-2-yl)-2H-pyrrol-3-ol]: the IC50 was found to be 1.21 µM in assay [1] (setting [3]) and 0.509 µM in assay [2] (setting [4]).
Take `CCOC(=O)COC1=CC(c2cc3ccccc3[nH]2)=N/C1=C\c1[nH]c(C)cc1C` [Compound 53, [2-(3,5-Dimethyl-1H-pyrrol-2-ylmethylene)-5-(1H-indol-2-yl)-2H-pyrrol-3-yloxy]-acetic acid ethyl ester]: the half-maximal inhibitory concentration (IC50) in assay [1] (setting [5]) worked out at 10.6 µM; in assay [2], 10.2 µM.
As for `COC1=CC(c2cc3ccccc3n2COC(=O)C(C)(C)C)=N/C1=C\c1[nH]c(C)cc1C` [Compound 64, 2,2-Dimethyl-propionic acid 2-[5-(3,5-dimethyl-1H-pyrrol-2-ylmethylene)-4-methoxy-5H-pyrrol-2-yl]-indol-1-ylmethyl ester], the results for the IC50 in assay [1] (setting [3]) and in assay [2] (setting [4]) were 13.3 µM and 14.2 µM, respectively.
As to `COC(=O)CCc1c(C)[nH]c(/C=C2\N=C(c3cc4ccccc4[nH]3)C=C2OC)c1C` [Compound 63, 3-{5-[5-(1H-Indol-2-yl)-3-methoxy-pyrrol-2-ylidenemethyl]-2,4-dimethyl-1H-pyrrol-3-yI}-propionic acid methyl ester], the IC50 amounted to 0.753 µM in assay [1] (setting [5]) and 0.548 µM in assay [2].
Regarding `COC1=CC(c2cc3c(O)cccc3[nH]2)=N/C1=C\c1[nH]c(C)cc1C` [Compound 59, 2-[5-(3,5-Dimethyl-1H-pyrrol-2-ylmethylene)-4-methoxy-5H-pyrrol-2-yl]-1H-indol-4-ol], the 50% inhibitory concentration (IC50) in assay [1] (setting [3]) turned out to be 5.84 µM; in assay [2] (setting [4]), 5.6 µM.
For `COC1=CC(c2cc3c(OC(=O)OC(C)(C)C)cccc3[nH]2)=N/C1=C\c1[nH]c(C)cc1C` [Compound 36, Carbonic acid tert-butyl ester 2-[5-(3,5-dimethyl-1H-pyrrol-2-ylmethylene)-4-methoxy-5H-pyrrol-2-yl]-1H-indol-4-yl ester], the IC50 in assay [1] (setting [3]) is 0.494 µM; in assay [2] (setting [4]), 0.583 µM.
On the same counts, the results for `Cc1cc(C)c(/C=C2\N=C(c3cc4ccc(F)cc4[nH]3)C=C2OC(C)C)[nH]1` [Compound 45, 2-[5-(3,5-Dimethyl-1H-pyrrol-2-ylmethylene)-4-isopropoxy-5H-pyrrol-2-yl]-6-fluoro-1H-indole] are 0.887 µM and 0.716 µM.
In the case of `Cc1cc(C)c(/C=C2\N=C(c3cc4c(O)cccc4[nH]3)C=C2OC(C)C)[nH]1` [Compound 57, 2-[5-(3,5-Dimethyl-1H-pyrrol-2-ylmethylene)-4-isopropoxy-5H-pyrrol-2-yl]-1H-indol-4-ol], the IC50 in assay [1] (setting [3]) is 5.9 µM; in assay [2] (setting [4]) it was 3.75 µM.
In the case of `COC1=CC(c2cc3cc(OC)c(OC)cc3n2C(=O)OC(C)(C)C)=N/C1=C\c1[nH]c(C)cc1C` [Compound 5, 2-[5-(3,5-Dimethyl-1H-pyrrol-2-ylmethylene)-4-methoxy-5H-pyrrol-2-yl]-5,6-dimethoxy-indole-1-carboxylic acid tert-butyl ester], the IC50 in assay [1] (setting [3]) was found to be 2.26 µM; in assay [2] (setting [4]), 2.24 µM.
For the molecule `COC1=CC(c2[nH]c3ccccc3c2C(=O)c2ccc(-c3ccccn3)s2)=N/C1=C\c1[nH]c(C)cc1C` [Compound 22, {2-[5-(3,5-Dimethyl-1H-pyrrol-2-ylmethylene)-4-methoxy-5H-pyrrol-2-yl]-1H-indol-3-yl}-(5-pyridin-2-yl-thiophen-2-yl)-methanone], the results for the IC50 in assay [1] (setting [3]) and in assay [2] (setting [4]) were 7.19 µM and 6.46 µM, respectively.
For the molecule `COC1=CC(c2cc3cc(OC)c(OC)cc3[nH]2)=N/C1=C\c1[nH]c(C)cc1C` [Compound 4, 2-[5-(3,5-Dimethyl-1H-pyrrol-2-ylmethylene)-4-methoxy-5H-pyrrol-2-yl]-5,6-dimethoxy-1H-indole], the results for the IC50 in assay [1] (setting [3]) and in assay [2] (setting [4]) were 0.215 µM and 0.25 µM, respectively.
For the molecule `Cc1cc(C)c(/C=C2\N=C(c3cc4c(OC(=O)OC(C)(C)C)cccc4[nH]3)C=C2OC(C)C)[nH]1` [Compound 38, Carbonic acid tert-butyl ester 2-[5-(3,5-dimethyl-1H-pyrrol-2-ylmethylene)-4-isopropoxy-5H-pyrrol-2-yl]-1H-indol-4-yl ester], the half-inhibitory concentration (IC50) in assay [1] (setting [3]) was found to be 0.342 µM; in assay [2] (setting [4]) it was 0.226 µM.
Regarding `COC1=CC(c2[nH]c3ccccc3c2CN2CCOCC2)=N/C1=C\c1[nH]c(C)cc1C` [Compound 6, 2-[5-(3,5-Dimethyl-1H-pyrrol-2-ylmethylene)-4-methoxy-5H-pyrrol-2-yl]-3-morpholin-4-ylmethyl-1H-indole], the half-inhibitory concentration (IC50) in assay [1] (setting [3]) was determined as 0.267 µM; in assay [2] (setting [4]), 0.19 µM.
For `COC1=CC(c2[nH]c3ccccc3c2CN2CCN(c3ccccc3)CC2)=N/C1=C\c1[nH]c(C)cc1C` [Compound 8, 2-[5-(3,5-Dimethyl-1H-pyrrol-2-ylmethylene)-4-methoxy-5H-pyrrol-2-yl]-3-(4-phenyl-piperazin-1-ylmethyl)-1H-indole], the results for the half-inhibitory concentration (IC50) in assay [1] (setting [3]) and in assay [2] (setting [4]) were 1.88 µM and 1.76 µM, respectively.
Regarding `COC1=CC(c2cc3ccccc3n2CCOS(=O)(=O)O)=N/C1=C\c1[nH]c(C)cc1C` [Compound 65, Sodium salt of Sulfuric acid mono-(2-{2-[5-(3,5-dimethyl-1H-pyrrol-2-ylmethylene)-4-methoxy-5H-pyrrol-2-yl]-indol-1-yl}-ethyl) ester], the half-inhibitory concentration (IC50) in assay [1] (setting [3]) turned out to be 7.89 µM; in assay [2] (setting [4]), 5.97 µM.

What is called IC50 is the concentration needed to halve the response being measured.
